# Laboratory results: US12421211B2, “Heterocyclic compounds” (Hoffmann-La Roche Inc., priority 2021, dated 2025)
# Where a name gives a salt, the structure may show the parent alone.
# Test system: Acinetobacter baumannii ATCC17961
# Experiment: Antimicrobial susceptibility testing: 90% growth inhibitory concentration (IC90) determination
# Assay type: cell-based
# Settings: Acinetobacter baumannii, ATCC17961, 16 h, 90% growth inhibitory concentration, Acinetobacter baumannii ATCC17961, Iso-Sensitest broth, OD 600 nm over 16 h; read-out: ATCC 17961 IC90
# Method in brief: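 A. baumannii ATCC17961 at ~5×10^5 CFU/ml in Iso-Sensitest broth exposed to 10-point twofold dilutions (e.g. 50–0.097 μM final), 35±2° C. OD600 read every 20 minutes over 16h; IC50 and IC90 derived from inhibition during logarithmic growth.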
row,IC90,SMILES
1,110 nM,"COCCn1ncc(-c2ccc(-c3cnc(C(=O)Nc4ccc(C(=O)N5CCC(CN6CC[N+](C)(C)CC6=O)CC5)c(Cl)c4)n3C)c(F)c2F)c1C [Example D14, N-[3-chloro-4-[4-[(4,4-dimethyl-2-oxo-piperazin-4-ium-1-yl)methyl]piperidine-1-carbonyl]phenyl]-5-[2,3-difluoro-4-[1-(2-methoxyethyl)-5-methyl-pyrazol-4-yl]phenyl]-1-methyl-imidazole-2-carboxamide; 2,2,2-trifluoroacetate]"
2,280 nM,"CNC(=O)Cn1cc(-c2ccc(-c3cnc(C(=O)Nc4ccc(C(=O)N5CCN(C(=O)[C@@H]6C[C@@H](O)C[N+]6(C)C)CC5)c(Cl)c4)n3C)c(F)c2F)c(C)n1 [Example F5, N-[3-chloro-4-[4-[(2S,4R)-4-hydroxy-1,1-dimethyl-pyrrolidin-1-ium-2-carbonyl]piperazine-1-carbonyl]phenyl]-5-[2,3-difluoro-4-[3-methyl-1-[2-(methylamino)-2-oxo-ethyl]pyrazol-4-yl]phenyl]-1-methyl-imidazole-2-carboxamide; formate]"
3,310 nM,"Cn1c(-c2ccc(-c3c[nH]nc3-c3cccc(F)c3)c(F)c2F)cnc1C(=O)Nc1ccc(C(=O)N2CCN(C(=O)C3CC[N+](C)(C)CC3)CC2)c(Cl)c1 [Example F45, N-[3-chloro-4-[4-(1,1-dimethylpiperidin-1-ium-4-carbonyl)piperazine-1-carbonyl]phenyl]-5-[2,3-difluoro-4-[3-(3-fluorophenyl)-1H-pyrazol-4-yl]phenyl]-1-methyl-imidazole-2-carboxamide; formate]"
4,118 nM,"COCCn1ncc(-c2ccc(-c3cnc(C(=O)Nc4ccc(C(=O)N5CCN(C(=O)[C@H]6CC[N@+](CC(=O)O)(CC7CNC7)CC6)CC5)c(Cl)c4)n3C)c(C)c2F)c1C [Example O4, cis 2-[1-(azetidin-3-ylmethyl)-4-[4-[2-chloro-4-[[5-[3-fluoro-4-[1-(2-methoxyethyl)-5-methyl-pyrazol-4-yl]-2-methyl-phenyl]-1-methyl-imidazole-2-carbonyl]amino]benzoyl]piperazine-1-carbonyl]piperidin-1-ium-1-yl]acetic acid formate]"
5,206 nM,"Cc1nn(CC(=O)Nc2ccc(F)nn2)cc1-c1ccc(-c2cnc(C(=O)Nc3ccc(C(=O)N4CCN(C(=O)C5CC[N+](C)(C)CC5)CC4)c(Cl)c3)n2C)cc1 [Example L1, N-[3-chloro-4-[4-(1,1-dimethylpiperidin-1-ium-4-carbonyl)piperazine-1-carbonyl]phenyl]-5-[4-[1-[2-[(6-fluoropyridazin-3-yl)amino]-2-oxo-ethyl]-3-methyl-pyrazol-4-yl]phenyl]-1-methyl-imidazole-2-carboxamide; formate]"
6,270 nM,"COCCCn1cc(-c2ccc(-c3cnc(C(=O)Nc4ccc(C(=O)N5CCN(C(=O)[C@@H]6C[C@@H](O)C[N+]6(C)C)CC5)c(Cl)c4)n3C)c(F)c2F)c(C)n1 [Example D11, N-[3-chloro-4-[4-[(2S,4R)-4-hydroxy-1,1-dimethyl-pyrrolidin-1-ium-2-carbonyl]piperazine-1-carbonyl]phenyl]-5-[2,3-difluoro-4-[1-(3-methoxypropyl)-3-methyl-pyrazol-4-yl]phenyl]-1-methyl-imidazole-2-carboxamide; formate]"
7,830 nM,"Cc1c(-c2ccc(-c3cnc(C(=O)Nc4ccc(C(=O)N5CCN(C(=O)[C@@H]6C[C@@H](O)C[N+]6(C)C)CC5)c(Cl)c4)n3C)c(F)c2F)cnn1CCC(C)(C)O [Example F4, N-[3-chloro-4-[4-[(2S,4R)-4-hydroxy-1,1-dimethyl-pyrrolidin-1-ium-2-carbonyl]piperazine-1-carbonyl]phenyl]-5-[2,3-difluoro-4-[1-(3-hydroxy-3-methyl-butyl)-5-methyl-pyrazol-4-yl]phenyl]-1-methyl-imidazole-2-carboxamide; formate]"
8,570 nM,"Cn1c(-c2ccc(-c3cn(CCOC(F)F)nc3C(F)(F)F)c(F)c2F)cnc1C(=O)Nc1ccc(C(=O)N2CCN(C(=O)C3CC[N+](C)(C)CC3)CC2)c(Cl)c1 [Example F6, N-[3-chloro-4-[4-(1,1-dimethylpiperidin-1-ium-4-carbonyl)piperazine-1-carbonyl]phenyl]-5-[4-[1-[2-(difluoromethoxy)ethyl]-3-(trifluoro-methyl)pyrazol-4-yl]-2,3-difluoro-phenyl]-1-methyl-imidazole-2-carboxamide; formate]"
9,360 nM,"Cc1nn(CCOC(F)F)c(C)c1-c1ccc(-c2cnc(C(=O)Nc3ccc(C(=O)N4CCN(C(=O)C5C[C@@H](O)C[N+]5(C)C)CC4)c(Cl)c3)n2C)c(F)c1F (stereo partly drawn) [Example K2, N-[3-chloro-4-[4-[(4R)-4-hydroxy-1,1-dimethyl-pyrrolidin-1-ium-2-carbonyl]piperazine-1-carbonyl]phenyl]-5-[4-[1-2-(difluoromethoxy)ethyl]-3,5-dimethyl-pyrazol-4-yl]-2,3-difluoro-phenyl]-1-methyl-imidazole-2-carboxamide; formate]"

row,SMILES,IC90
1,"COCCn1cc(-c2ccc(-c3cnc(C(=O)Nc4ccc(C(=O)N5CCN(C(=O)C6CC[N+](C)(CC(N)=O)CC6)CC5)c(Cl)c4)n3C)c(F)c2F)c(C)n1 (stereo not shown) [Example B2, N-[4-[4-[1-(2-amino-2-oxo-ethyl)-1-methyl-piperidin-1-ium-4-carbonyl]piperazine-1-carbonyl]-3-chloro-phenyl]-5-[2,3-difluoro-4-[1-(2-methoxyethyl)-3-methyl-pyrazol-4-yl]phenyl]-1-methyl-imidazole-2-carboxamide; formate]",120 nM

# Same assay, conditions: Acinetobacter baumannii, ATCC17961, 16 h, read-out: ATCC 17961 IC90
row,SMILES,IC90
1,"COCCn1cc(-c2ccc(-c3cnc(C(=O)Nc4ccc(C(=O)N5CCN(C(=O)C6CC[N+]7(CCNC(=O)C7)CC6)CC5)c(Cl)c4)n3C)c(F)c2F)c(C)n1 (stereo not shown) [Example Q1, N-[3-chloro-4-[4-(4-oxo-3-aza-6-azoniaspiro[5.5]undecane-9-carbonyl)piperazine-1-carbonyl]phenyl]-5-[2,3-difluoro-4-[1-(2-methoxyethyl)-3-methyl-pyrazol-4-yl]phenyl]-1-methyl-imidazole-2-carboxamide; 2,2,2-trifluoroacetate]",165 nM
2,"Cc1nn(CC(=O)NC23CC(C#N)(C2)C3)cc1-c1ccc(-c2cnc(C(=O)Nc3ccc(C(=O)N4CCN(C(=O)C5CC[N+](C)(C)CC5)CC4)c(Cl)c3)n2C)c(F)c1F [Example G4, N-[3-chloro-4-[4-(1,1-dimethylpiperidin-1-ium-4-carbonyl)piperazine-1-carbonyl]phenyl]-5-[4-[1-[2-[(3-cyano-1-bicyclo[1.1.1]pentanyl)amino]-2-oxo-ethyl]-3-methyl-pyrazol-4-yl]-2,3-difluoro-phenyl]-1-methyl-imidazole-2-carboxamide; formate]",190 nM
3,"COCCn1cc(-c2ccc(-c3cnc(C(=O)Nc4ccc(C(=O)N5CCN(C(=O)C6CC[N+](CC(=O)O)(CC7CNC7)CC6)CC5)c(Cl)c4)n3C)c(F)c2F)c(C)n1 (stereo not shown) [Example B18, 2-[1-(azetidin-3-ylmethyl)-4-[4-[2-chloro-4-[[5-[2,3-difluoro-4-[1-(2-methoxyethyl)-3-methyl-pyrazol-4-yl]phenyl]-1-methyl-imidazole-2-carbonyl]amino]benzoyl]piperazine-1-carbonyl]piperidin-1-ium-1-yl]acetic acid; formic acid; formate]",430 nM
4,"COCCn1ncc(-c2ccc(-c3cnc(C(=O)Nc4ccc(C(=O)N5CCN(C(=O)C[N+]6(C)CCC(O)C6)CC5)c(Cl)c4)n3C)c(F)c2F)c1C (stereo not shown) [Example C1, N-[3-chloro-4-[4-[2-(3-hydroxy-1-methyl-pyrrolidin-1-ium-1-yl)acetyl]piperazine-1-carbonyl]phenyl]-5-[2,3-difluoro-4-[1-(2-methoxyethyl)-5-methyl-pyrazol-4-yl]phenyl]-1-methyl-imidazole-2-carboxamide; formate]",45 nM

# Test system: Acinetobacter baumannii ATCC17978
# Experiment: Minimal Inhibitory Concentration (MIC) assay
# Assay type: cell-based
# Settings: Acinetobacter baumannii ATCC17978, CAMHB medium, 20 hours at 35±2° C., visual reading; read-out: MIC AB. ATCC17978
# Method: Minimal Inhibitory Concentration Protocol (MIC) Assay:
# Table 2 provides the in vitro potency of the compounds of present invention obtained against the strain Acinetobacter baumannii ATCC17978, which was assessed by an MIC (Minimal Inhibitory Concentration) assay as follows.
# Test compounds were prepared from 10 mM DMSO stock solutions. The top dose was diluted from 10 mM to 2.5 mM by DMSO, followed by serial 2-fold 11 points dilutions in DMSO in a master plate (Greiner, Cat No: 651201). 2 μL compounds were transferred from the master plate into a new 96-well assay plate (Costar, 3599).
# The growth medium […] Mueller Hinton Broth (CAMHIB) was prepared by adding 22 g powder (BD, 212322) in 1 L purified water, autoclaved, and supplemented with sterilized CaCl2 (20 mg per liter) and MgCl2 (10 mg per liter).
# Vials of each of the test microorganisms were maintained frozen in the vapor phase of a liquid nitrogen freezer. Took out the bacterial strain ATCC 17978 from liquid nitrogen freezer, thawed it at room temperature, and diluted the bacterial in the CAMHB medium to achieve a final inoculum of 2×10^5 CFU/mL. 98 μL of the adjusted bacteria suspension was dispensed to the assay plate and pipetted 5 times.
# Then the assay plates were incubated for 20 hours at 35±2° C. in ambient air with humidity. Following incubation, MIC […] value, the lowest concentration of drug that inhibits visible growth of the microorganism, was recorded by visual judgment of bacterial growth through magnification mirror of MIC reader, and the assay plates were photographed with Qcount system as image raw data. Meanwhile, the D600 of assay plates was recorded with SpectraMax Plus384 as GD raw data.
row,MIC,SMILES
1,2.31 µM,"Cn1c(-c2ccc(-c3cn[nH]c3CCCCO)c(F)c2F)cnc1C(=O)Nc1ccc(C(=O)N2CCN(C(=O)C3CC[N+](C)(C)CC3)CC2)c(Cl)c1 [Example F21, N-[3-chloro-4-[4-(1,1-dimethylpiperidin-1-ium-4-carbonyl)piperazine-1-carbonyl]phenyl]-5-[2,3-difluoro-4-[5-(4-hydroxybutyl)-1H-pyrazol-4-yl]phenyl]-1-methyl-imidazole-2-carboxamide; formate]"
2,1.07 µM,"Cc1n[nH]cc1-c1ccc(-c2cnc(C(=O)Nc3ccc(C(=O)N4CCN(C(=O)[C@@H]5C[C@@H](O)C[N+]5(C)C)CC4)c(Cl)c3)n2C)c(F)c1F [Example D19, N-[3-chloro-4-[4-[(2S,4R)-4-hydroxy-1,1-dimethyl-pyrrolidin-1-ium-2-carbonyl]piperazine-1-carbonyl]phenyl]-5-[2,3-difluoro-4-(3-methyl-1H-pyrazol-4-yl)phenyl]-1-methyl-imidazole-2-carboxamide; formate]"
